Earlier results on one molecule are cited in patent US7173016B2, “Composition and method for treating graft-versus-host disease” (Mayne Pharma (USA) Inc., priority 2001, dated 2007).

For this data set the following is noted: acid-catalyzed glycosidic cleavage.

The structures appear in SMILES notation.

Turning to `OC[C@H]1O[C@@H](n2cnc3c2NC=NC[C@H]3O)C[C@@H]1O` [pentostatin, 2′-deoxycoformycin], the acid stability entry is “highly acid-labile”.
